From patent US20090163586A1, “Bis-(Sulfonylamino) Derivatives in Therapy 205” (AstraZeneca AB, priority 2007, published 2009)

molecular target: T1, human mPGES-1 (Homo sapiens, UniProt O14684); test: Microsomal prostaglandin E synthase biochemical assay; conditions: microsome preparation containing human mPGES-1; PGH2 10.8 μM, GSH 2.5 mM, pH 6.8; PGE2 by HTRF; average of at least n=2
T1 sequence (O14684 1-152): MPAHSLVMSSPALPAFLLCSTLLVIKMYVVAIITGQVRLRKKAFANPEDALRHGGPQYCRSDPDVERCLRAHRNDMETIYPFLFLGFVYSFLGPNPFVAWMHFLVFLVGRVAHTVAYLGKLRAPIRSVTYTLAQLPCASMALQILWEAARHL
Method: Compounds were tested as inhibitors of microsomal prostaglandin E synthase activity in microsomal prostaglandin E synthase assays and whole cell assays. These assays measure prostaglandin E2 (PGE2) synthesis which is taken as a measure of prostaglandin E synthase activity. Microsomal prostaglandin E synthase biochemical assays used microsomal prostaglandin E synthase-1 in microsomal preparations. The source of the microsomes can be for example interleukin-1β-stimulated human A549 cells (which express human mPGES-1) or Sf9 cells transfected with plasmids encoding human mPGES-1 cDNA. The whole blood assay [described by Patrignani, P. et al., Journal of Pharmacology and Experimental Therapeutics, 1994, vol. 271, pp 1705-1712] was used as the whole cell assay for testing the compounds. Whole blood provides a protein and cell rich milieu for the study of biochemical efficacy of anti-inflammatory compounds such as prostaglandin synthase inhibitors. To study the inhibitory activities of these compounds, human blood was stimulated with lipopolysaccharide (LPS) for typically 16 hours to induce mPGES-1 expression, after which the concentration of produced PGE2 was measured by competitive-immuno assay (homogeneous time-resolved fluorescence, HTRF) as read out for effectiveness against mPGES-1-dependent PGE2 production.
Microsomal Prostaglandin E Synthase Biochemical Assay
A solution of test compound was added to a diluted microsome preparation containing human mPGES-1 and pre-incubated for 15 minutes in potassium phosphate buffer pH 6.8 with cofactor glutathione (GSH). Corresponding solutions without test compound were used as positive controls, and corresponding solutions without test compound and without microsomes were used as negative controls. The enzymatic reaction was then started by addition of the substrate PGH2 in an organic solution (dry acetonitrile).
The typical reaction conditions of the enzymatic reaction were thus: Test compound: ranging from 60 μM to 0.002 μM, or zero in positive and negative controls; potassium phosphate buffer pH 6.8: 50 mM; GSH: 2.5 mM; mPGES-1-containing microsomes: 2 μg/mL (sample and positive controls) or 0 μg/mL (negative control); PGH2: 10.8 μM; Acetonitrile: 7.7% (v/v); DMSO: 0.6% (v/v). The reaction was stopped after one minute by adding an acidic solution (pH 1.9) of ferric chloride and citrate (final concentrations 7 mM and 47 mM respectively), by which the PGH2 was sequestered (the PGH2 is reduced to mainly 12-hydroxy heptadecatrineoic acid (12-HHT) which is not detected by the subsequent PGE2 detection step). The resulting solution was then pH neutralized by addition of potassium phosphate buffer, prior to diluting an aliquot of the resulting solution in a weak potassium phosphate buffer (50 mM, pH 6.8) containing 0.2% BSA (w/v). [Adapted from Jacobsson et al., Proc. Natl. Acad. Sci. USA, 1999, vol. 96, pp. 7220-7225]The PGE2 formed was quantified by use of a commercial HTRF based kit (catalogue #62PG2PEC or #62P2APEC from Cisbio International). 100% activity was defined as the PGE2 production in positive controls subtracted by the PGE2 production in the negative controls. IC50 values were then determined using standard procedures.
The potency is expressed as IC50 and the value indicated is an average of at least n=2.

| SMILES | IC50 |
| --- | --- |
| NS(=O)(=O)c1cc(Cl)c(F)cc1NS(=O)(=O)CCc1ccc(Cl)c(Cl)c1 [Example 233, 5-Chloro-2-(2-(3,4-dichlorophenyl)ethylsulfonamido)-4-fluorobenzenesulfonamide] | 150 nM |
| NS(=O)(=O)c1ccccc1NS(=O)(=O)c1ccc(Cl)c(Cl)c1 [Example 161, 3,4-Dichloro-N-(2-sulfamoylphenyl)benzenesulfonamide] | 1300 nM |
| NS(=O)(=O)c1c(F)cccc1NS(=O)(=O)/C=C/c1ccccc1F [Example 62, 2-Fluoro-6-[[(E)-2-(2-fluorophenyl)ethenyl]sulfonylamino]benzenesulfonamide] | 2500 nM |
| COc1cc(Cl)ccc1CCS(=O)(=O)Nc1cc(F)cc(F)c1S(N)(=O)=O [Example 198, 2-(2-(4-Chloro-2-methoxyphenyl)ethylsulfonamido)-4,6-difluorobenzenesulfonamide] | 290 nM |
| NS(=O)(=O)c1c(F)cccc1NS(=O)(=O)/C=C/c1ccc(Cl)cc1 [Example 80, 2-[[(E)-2-(4-Chlorophenyl)ethenyl]sulfonylamino]-6-fluoro-benzenesulfonamide] | 570 nM |
| CC(CS(=O)(=O)Nc1ccccc1S(N)(=O)=O)c1ccc(Cl)cc1 (stereo not drawn) [Example 108, 2-[2-(4-Chlorophenyl)propylsulfonylamino]benzenesulfonamide] | 4900 nM |
| CC(C)(C)C#Cc1ccc(/C=C/S(=O)(=O)Nc2ccccc2S(N)(=O)=O)cc1 [Example 208, (E)-2-(2-(4-(3,3-Dimethylbut-1-ynyl)phenyl)vinylsulfonamido)benzenesulfonamide] | 55 nM |
| NS(=O)(=O)c1ccccc1NS(=O)(=O)/C=C/c1ccccc1F [Example 193, (E)-2-(2-(2-Fluorophenyl)vinylsulfonamido)benzenesulfonamide] | 7900 nM |
| NS(=O)(=O)c1ccccc1NS(=O)(=O)/C=C/c1c(Cl)cccc1Cl [Example 81, 2-[[(E)-2-(2,6-Dichlorophenyl)ethenyl]sulfonylamino]benzenesulfonamide] | 2900 nM |
| COc1cc(Cl)ccc1CCS(=O)(=O)Nc1ccc(Cl)cc1S(N)(=O)=O [Example 194, 5-Chloro-2-(2-(4-chloro-2-methoxyphenyl)ethylsulfonamido)benzenesulfonamide] | 1000 nM |
| NS(=O)(=O)c1cc(Oc2ccccc2)ccc1NS(=O)(=O)c1cccc(-c2cccc(OC(F)(F)F)c2)c1 [Example 156, 5-Phenoxy-2-[[3-[3-(trifluoromethoxy)phenyl]phenyl]sulfonylamino]-benzenesulfonamide] | 5400 nM |
| NS(=O)(=O)c1cc(F)ccc1NS(=O)(=O)/C=C/c1ccc(C(F)(F)F)cc1 [Example 101, 5-Fluoro-2-[[(E)-2-[4-(trifluoromethyl)phenyl]ethenyl]sulfonylamino]-benzenesulfonamide] | 1600 nM |
| COc1cc(Cl)ccc1CCS(=O)(=O)Nc1ccc(CO)cc1S(N)(=O)=O [Example 213, 2-[2-(4-Chloro-2-methoxy-phenyl)-ethanesulfonylamino]-5-hydroxymethyl-benzenesulfonamide] | 330 nM |
| Cc1ccc(NS(=O)(=O)/C=C/c2cccc(Cl)c2)c(S(N)(=O)=O)c1 [Example 63, 2-[[(E)-2-(3-Chlorophenyl)ethenyl]sulfonylamino]-5-methyl-benzenesulfonamide] | 3000 nM |
| NS(=O)(=O)c1ccccc1NS(=O)(=O)c1ccc(-c2cc3ccccc3o2)cc1 [Example 142, 4-Benzofuran-2-yl-N-(2-sulfamoylphenyl)benzenesulfonamide] | 4900 nM |
| NS(=O)(=O)c1cc(Cl)ccc1NS(=O)(=O)CCc1ccc(Cl)c(Cl)c1 [Example 202, 5-Chloro-2-(2-(3,4-dichlorophenyl)ethylsulfonamido)benzenesulfonamide] | 2900 nM |
| NS(=O)(=O)c1ccccc1NS(=O)(=O)c1cccc(-c2cccc(C(F)(F)F)c2)c1 [Example 141, 2-[[3-[3-(Trifluoromethyl)phenyl]phenyl]sulfonylamino]benzenesulfonamide] | 3100 nM |

| SMILES | IC50 |
| --- | --- |
| NS(=O)(=O)c1cc(Br)ccc1NS(=O)(=O)c1cccc(-c2ccc(Cl)c(Cl)c2)c1 [Example 144, 5-Bromo-2-[[3-(3,4-dichlorophenyl)phenyl]sulfonylamino]benzenesulfonamide] | 1100 nM |
| NS(=O)(=O)c1cc(CO)ccc1NS(=O)(=O)CCc1ccc(C#CC2CCCC2)cc1 [Example 212, 2-[2-(4-Cyclopentylethynyl-phenyl)-ethanesulfonylamino]-5-hydroxymethyl-benzenesulfonamide] | 41 nM |
| NS(=O)(=O)c1cc(Oc2ccccc2)ccc1NS(=O)(=O)c1cccc(-c2ccc(Cl)c(Cl)c2)c1 [Example 155, 2-[[3-(3,4-Dichlorophenyl)phenyl]sulfonylamino]-5-phenoxy-benzenesulfonamide] | 9800 nM |
| NS(=O)(=O)c1ccccc1NS(=O)(=O)Cc1ccc(Cl)cc1 [Example 112, 2-[(4-Chlorophenyl)methylsulfonylamino]benzenesulfonamide] | 6100 nM |
| NS(=O)(=O)c1ccc(F)cc1NS(=O)(=O)CCc1ccc(Cl)cc1 [Example 85, 2-[2-(4-Chlorophenyl)ethylsulfonylamino]-4-fluoro-benzenesulfonamide] | 800 nM |
| NS(=O)(=O)c1c(F)cccc1NS(=O)(=O)/C=C/c1ccc(Br)cc1 [Example 91, 2-[[(E)-2-(4-Bromophenyl)ethenyl]sulfonylamino]-6-fluoro-benzenesulfonamide] | 310 nM |
| NS(=O)(=O)c1ccccc1NS(=O)(=O)c1ccccc1-c1ccc(Cl)c(Cl)c1 [Example 124, 2-(3,4-Dichlorophenyl)-N-(2-sulfamoylphenyl)benzenesulfonamide] | 1300 nM |
| Cc1ccc(NS(=O)(=O)/C=C/c2cccc(C(F)(F)F)c2)c(S(N)(=O)=O)c1 [Example 68, 5-Methyl-2-[[(E)-2-[3-(trifluoromethyl)phenyl]ethenyl]sulfonylamino]-benzenesulfonamide] | 9100 nM |
| NS(=O)(=O)c1cc(F)ccc1NS(=O)(=O)/C=C/c1ccc(OC(F)F)cc1 [Example 42, 2-[[(E)-2-[4-(Difluoromethoxy)phenyl]ethenyl]sulfonylamino]-5-fluoro-benzenesulfonamide] | 1600 nM |
| N#Cc1ccc(S(N)(=O)=O)c(NS(=O)(=O)CCc2ccc(Cl)c(Cl)c2)c1 [Example 180, 4-Cyano-2-(2-(3,4-dichlorophenyl)ethylsulfonamido)benzenesulfonamide] | 1400 nM |
| Cc1ccc(NS(=O)(=O)CCc2ccc(Br)cc2)c(S(N)(=O)=O)c1 [Example 189, 2-(2-(4-Bromophenyl)ethylsulfonamido)-5-methylbenzenesulfonamide] | 1400 nM |
| NS(=O)(=O)c1ccccc1NS(=O)(=O)c1cccc(Cl)c1F [Example 148, 3-Chloro-2-fluoro-N-(2-sulfamoylphenyl)benzenesulfonamide] | 380 nM |
| COc1ccccc1/C=C/S(=O)(=O)Nc1cccc(F)c1S(N)(=O)=O [Example 57, 2-Fluoro-6-[[(E)-2-(2-methoxyphenyl)ethenyl]sulfonylamino]benzenesulfonamide] | 620 nM |
| NS(=O)(=O)c1ccccc1NS(=O)(=O)c1cccc(-c2ccc(Cl)cc2Cl)c1 [Example 139, 2-[[3-(2,4-Dichlorophenyl)phenyl]sulfonylamino]benzenesulfonamide] | 1800 nM |
| NS(=O)(=O)c1cc(Cl)c(F)cc1NS(=O)(=O)CCc1ccc(Cl)cc1 [Example 232, 5-Chloro-2-(2-(4-chlorophenyl)ethylsulfonamido)-4-fluorobenzenesulfonamide] | 870 nM |
| NS(=O)(=O)c1ccccc1NS(=O)(=O)c1cccc(-c2cc(Cl)ccc2Cl)c1 [Example 132, 2-[[3-(2,5-Dichlorophenyl)phenyl]sulfonylamino]benzenesulfonamide] | 4500 nM |
